The assay addresses T1, BRD9 (Homo sapiens, UniProt Q9H8M2).
T1 sequence (Q9H8M2 1-597): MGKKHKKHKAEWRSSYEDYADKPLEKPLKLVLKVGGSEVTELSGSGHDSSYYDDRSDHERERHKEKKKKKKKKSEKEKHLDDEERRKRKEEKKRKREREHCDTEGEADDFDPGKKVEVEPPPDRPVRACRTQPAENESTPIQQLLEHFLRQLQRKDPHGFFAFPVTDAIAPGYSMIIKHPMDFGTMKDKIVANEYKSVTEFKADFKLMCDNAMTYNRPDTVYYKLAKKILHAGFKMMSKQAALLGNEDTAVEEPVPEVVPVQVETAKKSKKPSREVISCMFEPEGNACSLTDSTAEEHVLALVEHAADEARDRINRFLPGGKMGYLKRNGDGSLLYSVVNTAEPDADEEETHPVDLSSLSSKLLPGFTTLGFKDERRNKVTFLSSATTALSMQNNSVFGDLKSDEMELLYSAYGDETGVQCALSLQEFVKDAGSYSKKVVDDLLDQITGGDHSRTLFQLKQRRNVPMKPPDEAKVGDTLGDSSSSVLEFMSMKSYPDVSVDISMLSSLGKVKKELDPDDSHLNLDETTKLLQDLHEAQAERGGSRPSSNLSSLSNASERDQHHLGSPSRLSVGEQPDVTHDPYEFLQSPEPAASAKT
Kind of assay: BRD9 degradation, HiBiT-BRD9 KI HEK293 (LgBiT) cells, NanoGlo Lytic Endpoint assay (Assay Protocol 1). In kind it is cell-based. The conditions noted are these: BRD9 degradation; for Dmax at 1 µM / DC50: Table 2, Assay Protocol 1; for Dmax at 1 µM: 1 μM compound at 6 h of treatment, read-out: Assay 1 Dmax; for DC50: 6 h of treatment, read-out: Assay 1 DC50. How it is done:
HiBiT-BRD9 KI HEK293 (LgBiT) Cells (Promega CS3023412) were seeded at 8000 cells per well (38 μL) in sterile white bottom 384 well plates (Invitrogen 164610 or Greiner 781080) and incubated overnight at 37° C. with 5% CO2. The next day, compounds were prepared at 1000× final concentration in DMSO and diluted 1:100 in media (DMEM PAN Biotech P04-03550+10% FBS ATCC 302025). 4 μL compound was added to each well of the cell plate and incubated for 6 h at 37° C. with 5% CO2 BRD9 expression was quantified using the NanoGlo Lytic Endpoint assay (Promega N3050). The lytic buffer was equilibrated to room temperature for 10-15 min before lytic reagent was prepared by adding substrate (1:50) and LgBit protein (1:100) in lytic buffer. 40 μL lytic reagent mix was added to each well of the cel plate and plates were centrifuged briefly at ˜50g. Plates were incubated with shaking (350 RPM) for 12-24 min before reading using the LUM plus module of a BMG Pherastar FSX. Data was analysed using Dotmatics software and % BRD9 remaining was calculated by normalisation to average data from high and low control wells (DMSO treated cels and no cells respectively).
In general terms: The HiBiT peptide binds its large partner to form an active luciferase.

Results on 17 molecules are retold here after US20260092061A1, “COMPOUNDS FOR TARGETED PROTEIN DEGRADATION” (Amphista Therapeutics Limited, priority 2022, published 2026).

One may read the Dmax as the largest share of the target that was removed. The DC50 is the concentration giving 50% degradation. On to `COc1cc(-c2cn(C)c(=O)c3cnccc23)cc(OC)c1CN1CCN(Cc2cccc3c2CCN(C(=O)/C(C#N)=C\C2CCC2)C3C)CC1` (mixture of isomers) [Compound A24, (E/Z)-3-cyclobutyl-2-(5-((4-(2,6-dimethoxy-4-(2-methyl-1-oxo-1,2-dihydro-2,7-naphthyridin-4-yl)benzyl)piperazin-1-yl)methyl)-1-methyl-1,2,3,4-tetrahydroisoquinoline-2-carbonyl)acrylonitrile], for which the DC50 is less than 0.00125 µM. In addition, the Dmax at 1 µM (HEK293) lay within 40 to 70%.

Take `COc1cc(-c2cn(C)c(=O)c3cnccc23)cc(OC)c1CN1CCN(Cc2cccc3c2CCN(C(=O)/C(C#N)=C\C2CCOCC2)C3C)CC1` (mixture of isomers) [Compound A17, (E/Z)-2-(5-((4-(2,6-dimethoxy-4-(2-methyl-1-oxo-1,2-dihydro-2,7-naphthyridin-4-yl)benzyl)piperazin-1-yl)methyl)-1-methyl-1,2,3,4-tetrahydroisoquinoline-2-carbonyl)-3-(tetrahydro-2H-pyran-4-yl)acrylonitrile]: the DC50 was in the range of 0.00125 to 0.01 µM. Besides, the Dmax at 1 µM (HEK293) lay within 40 to 70%.

Regarding `COc1cc(-c2cn(C)c(=O)c(C)c2C)cc(OC)c1CN1CCN(Cc2cccc3c2CCN(C(=O)/C(C#N)=C/C2CCC2)C3C)CC1` (mixture of isomers) [Compound A45], the DC50 lay within 0.00125 to 0.01 µM. For the same molecule, for the setting “HEK293”, the Dmax at 1 µM lay within 70 to 75%.

For `COc1cc(-c2cn(C)c(=O)c3cnccc23)cc(OC)c1CN1CCN(Cc2cccc3c2CCN(C(=O)/C(C#N)=C/c2c(F)cccc2F)C3C)CC1` (mixture of isomers) [Compound A35, (E/Z)-3-(2,6-difluorophenyl)-2-[5-[[4-[[2,6-dimethoxy-4-(2-methyl-1-oxo-2,7-naphthyridin-4-yl)phenyl]methyl]piperazin-1-yl]methyl]-1-methyl-3,4-dihydro-1H-isoquinoline-2-carbonyl]prop-2-enenitrile], the DC50 was in the range of 0.00125 to 0.01 µM. Moreover, where the note is “HEK293”, the Dmax at 1 µM lay within 40 to 70%.

Turning to `COc1cc(-c2cn(C)c(=O)c3cnccc23)cc(OC)c1CN1CCN(Cc2ccc(C3CCCN3C(=O)/C(C#N)=C/c3nccs3)cc2)CC1` (mixture of isomers) [Compound A38, (E/Z)-2-(2-(4-((4-(2,6-dimethoxy-4-(2-methyl-1-oxo-1,2-dihydro-2,7-naphthyridin-4-yl)benzyl)piperazin-1-yl)methyl)phenyl)pyrrolidine-1-carbonyl)-3-(thiazol-2-yl)acrylonitrile], the DC50 lay in the range of 0.00125 to 0.01 µM. For the setting “HEK293”, the Dmax at 1 µM fell in the range of 40 to 70%.

Turning to `COc1cc(-c2cn(C)c(=O)c3cnccc23)cc(OC)c1CN1CCN(C(=O)c2ccc(C3CCCN3C(=O)/C(C#N)=C/c3nccs3)cc2)CC1` (mixture of isomers) [Compound A34, (E/Z)-2-(2-(4-(4-(2,6-dimethoxy-4-(2-methyl-1-oxo-1,2-dihydro-2,7-naphthyridin-4-yl)benzyl)piperazine-1-carbonyl)phenyl)pyrrolidine-1-carbonyl)-3-(thiazol-2-yl)acrylonitrile], the DC50 is 0.00125 to 0.01 µM. Moreover, the Dmax at 1 µM (HEK293) was 40 to 70%.

On to `COc1cc(-c2cn(C)c(=O)c(C)c2C)cc(OC)c1CN1CC2CC(C1)N2C(=O)/C(C#N)=C/c1nccs1` (mixture of isomers) [BRD9l, (E/Z)-2-(3-(2,6-dimethoxy-4-(1,4,5-trimethyl-6-oxo-1,6-dihydropyridin-3-yl)benzyl)-3,6-diazabicyclo[3.1.1]heptane-6-carbonyl)-3-(thiazol-2-yl)acrylonitrile], for which the Dmax (HEK293, Table 4, determined according to Assay Protocol 1, read-out: Dmax^1) was 50 to 70%.

On to `COc1cc(-c2cn(C)c(=O)c3cnccc23)cc(OC)c1CN1CCN(Cc2cccc3c2CCN(C(=O)/C(C#N)=C/c2cccc(Br)n2)C3C)CC1` (mixture of isomers) [Compound A5, (E/Z)-3-(6-bromopyridin-2-yl)-2-(5-((4-(2,6-dimethoxy-4-(2-methyl-1-oxo-1,2-dihydro-2,7-naphthyridin-4-yl)benzyl)piperazin-1-yl)methyl)-1-methyl-1,2,3,4-tetrahydroisoquinoline-2-carbonyl)acrylonitrile], for which the DC50 was less than 0.00125 µM. Also, the Dmax at 1 µM (HEK293) is 40 to 70%.

In the case of `COc1cc(-c2cn(C)c(=O)c3cnccc23)cc(OC)c1CN1C2CC1CN(Cc1cccc3c1CCN(C(=O)/C(C#N)=C/C(C)(C)C)C3C)C2` (mixture of isomers) [Compound A40], the DC50 fell in the range of 0.01 to 0.025 µM. Also, the Dmax at 1 µM (HEK293) is 70 to 75%.

For the molecule `COc1cc(-c2cn(C)c(=O)c(C)c2C)cc(OC)c1CN1CCN(Cc2cccc3c2CCN(C(=O)/C(C#N)=C/C2CC2)C3C)CC1` (mixture of isomers) [Compound A44], the DC50 is 0.00125 to 0.01 µM. The Dmax at 1 µM (HEK293) lay in the range of 40 to 70%.

On to `COc1cc(-c2cn(C)c(=O)c3cnccc23)cc(OC)c1CN(C)Cc1ccc2c(c1)CCN(C(=O)/C(C#N)=C/C(C)(C)C)C2C` (mixture of isomers) [Compound A46], for which the DC50 was in the range of 0.00125 to 0.01 µM. The Dmax at 1 µM (HEK293) fell in the range of 40 to 70%.

Regarding `COc1cc(-c2cn(C)c(=O)c(C)c2C)cc(OC)c1CN1CCN(C(=O)CCc2ccc3c(c2)CCN(C(=O)/C(C#N)=C/c2nccs2)C3C)CC1` (mixture of isomers) [Compound A56, (E/Z)-2-(6-(3-(4-(2,6-dimethoxy-4-(1,4,5-trimethyl-6-oxo-1,6-dihydropyridin-3-yl)benzyl)piperazin-1-yl)-3-oxopropyl)-1-methyl-1,2,3,4-tetrahydroisoquinoline-2-carbonyl)-3-(thiazol-2-yl)acrylonitrile], the DC50 lay within 0.01 to 0.025 µM. Further, where the note is “HEK293”, the Dmax at 1 µM was 40 to 70%.

Consider `COc1cc(-c2cn(C)c(=O)c3cnccc23)cc(OC)c1CN(C)Cc1ccc2c(c1)C(C)N(C(=O)/C(C#N)=C/c1cccc(Br)n1)CC2` (mixture of isomers) [Compound A59], for which the DC50 is 0.00125 to 0.01 µM. The Dmax at 1 µM (HEK293) lay in the range of 70 to 75%.

On to `COc1cc(-c2cn(C)c(=O)c(C)c2C)cc(OC)c1CN1CCN(C(=O)CCc2cccc3c2CCN(C(=O)/C(C#N)=C/c2nccs2)C3C)CC1` (mixture of isomers) [Compound A57, (E/Z)-2-(5-(3-(4-(2,6-dimethoxy-4-(1,4,5-trimethyl-6-oxo-1,6-dihydropyridin-4-yl)benzyl)piperazin-1-yl)-3-oxopropyl)-1-methyl-1,2,3,4-tetrahydroisoquinoline-2-carbonyl)-3-(thiazol-2-yl)acrylonitrile], for which the DC50 is 0.00125 to 0.01 µM. Moreover, the Dmax at 1 µM (HEK293) was more than 75%.

For `COc1cc(-c2cn(C)c(=O)c(C)c2C)cc(OC)c1CN1CCN(C(=O)CCc2ccc3c(c2)C(C)N(C(=O)/C(C#N)=C/c2nccs2)CC3)CC1` (mixture of isomers) [Compound A55, (E/Z)-2-(7(3-(4-(2,6-dimethoxy-4-(1,4,5-trimethyl-6-oxo-1,6-dihydropyridin-3-yl)benzyl)piperazin-1-yl)-3-oxopropyl)-1-methyl-1,2,3,4-tetrahydroisoquinoline-2-carbonyl)-3-(thiazol-2-yl)acrylonitrile], the half-maximal degradation concentration (DC50) was 0.01 to 0.025 µM. Moreover, the Dmax at 1 µM (HEK293) was 40 to 70%.

In the case of `COc1cc(-c2cn(C)c(=O)c3cnccc23)cc(OC)c1CN1CCN(Cc2cccc3c2CCN(C(=O)/C(C#N)=C\C(C)C)C3C)CC1` (mixture of isomers) [Compound A19, (E/Z)-2-(5-((4-(2,6-dimethoxy-4-(2-methyl-1-oxo-1,2-dihydro-2,7-naphthyridin-4-yl)benzyl)piperazin-1-yl)methyl)-1-methyl-1,2,3,4-tetrahydroisoquinoline-2-carbonyl)-4-methylpent-2-enenitrile], the DC50 lay within 0.00125 to 0.01 µM. Also, under “HEK293”, the Dmax at 1 µM was in the range of 40 to 70%.

As to `COc1cc(-c2cn(C)c(=O)c(C)c2C)cc(OC)c1CN1CCN(Cc2cccc3c2CCN(C(=O)/C(C#N)=C/c2ccn(C)n2)C3C)CC1` (stereo not drawn) [Compound A8, (E)-2-(5-((4-(2,6-dimethoxy-4-(1,4,5-trimethyl-6-oxo-1,6-dihydropyridin-3-yl)benzyl)piperazin-1-yl)methyl)-1-methyl-1,2,3,4-tetrahydroisoquinoline-2-carbonyl)-3-(1-methyl-1H-pyrazol-3-yl)acrylonitrile], the DC50 fell in the range of 0.01 to 0.025 µM. The Dmax at 1 µM (HEK293) is 40 to 70%.
